Source: the supplement of paper PMC10331698
± gives the standard deviation of the averaged measurements.

Tests used:
Assay in all cases: level (log10 ratio to DMSO vehicle control); higher = higher biomarker level / cell amount than vehicle control
Settings in all cases: in DMSO
Perfluoro-1-iodohexane = compound: FC(F)(F)C(F)(F)C(F)(F)C(F)(F)C(F)(F)C(F)(F)I [Perfluoro-1-iodohexane]
Method: (§1)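 BioMAP Diversity Plus panel of 12 human primary cell co-culture systems (3C, 4H, LPS, SAg, BT, BF4T, BE3C, CASM3C, HDF3CGF, KF3CT, MyoF, Mphg). Compounds were added 1 h before stimulation and left for 24 h (MyoF 48 h; BT 72 h for soluble read-outs or 6 d for IgG). Biomarkers were read by ELISA, cytotoxicity by SRB, PBMC viability and proliferation by Alamar Blue. Each well value was divided by the mean of 8 DMSO control wells on the same plate and log10 transformed; duplicate blinded samples were tested at 4 concentrations.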

Perfluorobutanoic acid = compound: O=C(O)C(F)(F)C(F)(F)C(F)(F)F [Perfluorobutanoic acid]
Method: as §1

Perfluoropropanoic acid = compound: O=C(O)C(F)(F)C(F)(F)F [Perfluoropropanoic acid]
Method: as §1

[1] = compound: O=C(O)C(F)(F)C(F)(F)OC(F)(F)F [Perfluoro-3-methoxypropanoic acid]
Method: as §1

[2] = compound: O=C(O)C(F)(F)OC(F)(F)C(F)(F)OC(F)(F)C(=O)O [Perfluoro-3,6-dioxaoctane-1,8-dioic acid]
Method: as §1

[3] = compound: OCC(F)(F)OC(F)(F)C(F)(F)OC(F)(F)CO [1H,1H,8H,8H-Perfluoro-3,6-dioxaoctane-1,8-diol]
Method: as §1

[4] = compound: OCCC(F)(F)C(F)(F)C(F)(F)C(F)(F)C(F)(F)C(F)(F)F [6:2 Fluorotelomer alcohol]
Method: as §1

Test System	level (log10) (Perfluoro-1-iodohexane; 6700 nM)	level (log10) (Perfluoro-1-iodohexane; 20000 nM)	level (log10) (Perfluoro-1-iodohexane; 60000 nM)	level (log10) (Perfluorobutanoic acid; 6700 nM)	level (log10) (Perfluorobutanoic acid; 20000 nM)	level (log10) (Perfluorobutanoic acid; 60000 nM)	level (log10) (Perfluoropropanoic acid; 6700 nM)	level (log10) (Perfluoropropanoic acid; 20000 nM)	level (log10) (Perfluoropropanoic acid; 60000 nM)	level (log10) ([1]; 6700 nM)	level (log10) ([1]; 20000 nM)	level (log10) ([1]; 60000 nM)	level (log10) ([2]; 6700 nM)	level (log10) ([2]; 20000 nM)	level (log10) ([2]; 60000 nM)	level (log10) ([3]; 6700 nM)	level (log10) ([3]; 20000 nM)	level (log10) ([3]; 60000 nM)	level (log10) ([4]; 6700 nM)	level (log10) ([4]; 20000 nM)
MyoF:Collagen IV	-0.033 ± 0.027	-0.031 ± 0.028	0.193 ± 0.013	-0.032 ± 0.051	-0.0215 ± 0.04	-0.0055 ± 0.018	0.0075 ± 0.0021	-0.007 ± 0.011	0.0145 ± 0.019	-0.021 ± 0.02	0.002 ± 0.0085	0.009 ± 0.013	-0.0165 ± 0.013	-0.011 ± 0.031	0.0295 ± 0.00071	-0.021 ± 0.013	-0.0125 ± 0.015	0.0065 ± 0.032	-0.0005 ± 0.013	-0.002 ± 0.013
CASM3C:Proliferation	0.023 ± 0.0071	-0.02 ± 0.013	-0.021 ± 0.067	0.01 ± 0.0099	-0.0015 ± 0.025	-0.007 ± 0.017	0.0065 ± 0.0035	-0.0355 ± 0.063	0.017 ± 0.033	-0.024 ± 0.023	-0.0095 ± 0.029	-0.0075 ± 0.025	0.0055 ± 0.0035	-0.0135 ± 0.025	-0.0075 ± 0.0092	-0.0225 ± 0.0021	-0.0045 ± 0.028	0.0065 ± 0.026	-0.004 ± 0.021	-0.0205 ± 0.023
KF3CT:uPA	0.013 ± 0.0042	0.006 ± 0.023	0.007 ± 0.017	-0.017 ± 0.017	-0.018 ± 0.0099	0.005 ± 0.02	-0.0085 ± 0.022	0.032 ± 0.027	0.0045 ± 0.021	0 ± 0.018	-0.0055 ± 0.012	0.002 ± 0.0085	0.0005 ± 0.0078	0 ± 0.0071	0.012 ± 0.0014	-0.0045 ± 0.0092	-0.011 ± 0.0085	0.0005 ± 0.021	-0.015 ± 0.023	-0.0055 ± 0.015
BE3C:uPA	0.0175 ± 0.015	-0.0005 ± 0.0035	0.001 ± 0.0085	-0.0065 ± 0.026	-0.007 ± 0.011	-0.015 ± 0.014	-0.0165 ± 0.044	0.0015 ± 0.044	0.003 ± 0.041	-0.004 ± 0.0014	-0.0025 ± 0.0021	0.0005 ± 0.0092	-0.0145 ± 0.005	-0.013 ± 0.014	-0.0025 ± 0.0064	-0.01 ± 0.0042	0 ± 0.037	-0.016 ± 0.0057	-0.004	-0.012 ± 0.0028
MyoF:SRB	-0.0405 ± 0.05	-0.263 ± 0.16	-0.712 ± 0.15	0.0005 ± 0.0035	-0.001 ± 0.0085	-0.0125 ± 0.0035	0.0015 ± 0.012	0.0005 ± 0.011	-0.0015 ± 0.0092	-0.005 ± 0.0042	-0.004 ± 0.0028	0 ± 0.0014	0 ± 0.011	-0.007 ± 0.0042	0.0065 ± 0.0078	-0.0045 ± 0.00071	-0.001 ± 0.0014	-0.017 ± 0.013	-0.002 ± 0.0085	0 ± 0.0028
lMphg:CD40	-0.011 ± 0.0071	-0.0265 ± 0.0035	-0.0375 ± 0.013	-0.049 ± 0.11	-0.025 ± 0.038	0.023 ± 0.068	-0.0045 ± 0.021	-0.0145 ± 0.023	0.004 ± 0.0028	-0.0295 ± 0.03	-0.0165 ± 0.0021	-0.0225 ± 0.04	-0.03 ± 0.017	-0.0085 ± 0.013	-0.0105 ± 0.016	-0.015 ± 0.02	-0.0845 ± 0.0035	-0.0265 ± 0.0035	-0.029 ± 0.0057	-0.0435 ± 0.025
KF3CT:CXCL10/IP-10	0.005 ± 0.0014	0.001 ± 0.0028	0.0065 ± 0.0092	0.008 ± 0.0042	-0.005 ± 0.0014	-0.002 ± 0.0028	-0.022 ± 0.033	0.004 ± 0.014	0.019 ± 0.0085	0.011 ± 0.023	0.027 ± 0.034	0.03 ± 0.016	0.0045 ± 0.011	0.0095 ± 0.022	0.029 ± 0.0085	0.0025 ± 0.005	-0.001 ± 0.0028	0.004 ± 0.0028	0.0105 ± 0.0092	0.006 ± 0.014
MyoF:PAI-I	-0.001 ± 0.0028	-0.025 ± 0.0057	-0.12 ± 0.054	-0.008 ± 0.0014	-0.0055 ± 0.018	-0.0105 ± 0.013	-0.0035 ± 0.013	-0.0165 ± 0.0035	-0.0035 ± 0.012	0.0045 ± 0.016	-0.001 ± 0.0014	0.0025 ± 0.0035	0.003 ± 0.013	-0.0005 ± 0.0064	0.005 ± 0.0085	-0.008 ± 0.0099	-0.008 ± 0.017	0.0025 ± 0.0078	0.002 ± 0.0028	0.007 ± 0.0042
MyoF:TIMP-1	0.036 ± 0.0085	0.0395 ± 0.011	-0.058 ± 0.0014	-0.039 ± 0.055	-0.02 ± 0.02	0.0035 ± 0.0092	0.0645 ± 0.077	0.05 ± 0.047	0.0465 ± 0.12	0.015 ± 0.055	0.0185 ± 0.033	0.0455 ± 0.012	0.0065 ± 0.056	0.02 ± 0.037	0.026 ± 0.0014	-0.0015 ± 0.036	0.038 ± 0.025	0.052 ± 0.03	0.002 ± 0.04	0.0085 ± 0.047
lMphg:CCL2/MCP-1	-0.021 ± 0.0099	0.0145 ± 0.032	-0.003 ± 0.025	-0.0205 ± 0.021	-0.0165 ± 0.018	0.0135 ± 0.022	-0.021 ± 0.017	-0.0045 ± 0.0064	0.002 ± 0.013	-0.0175 ± 0.025	-0.0225 ± 0.029	-0.0075 ± 0.028	-0.0165 ± 0.021	-0.019 ± 0.027	-0.008 ± 0.0057	-0.0115 ± 0.0035	-0.0145 ± 0.012	0.0155 ± 0.012	-0.019 ± 0.0042	-0.025 ± 0.016
lMphg:CXCL8/IL-8	-0.0075 ± 0.039	0.0325 ± 0.016	0.0585 ± 0.064	-0.022 ± 0.014	-0.017 ± 0.0028	0.0165 ± 0.04	0.0055 ± 0.0078	0.017 ± 0.018	0.0175 ± 0.043	-0.03 ± 0.065	-0.0275 ± 0.025	-0.001 ± 0.044	-0.024 ± 0.027	0 ± 0.068	-0.002 ± 0.085	0.0065 ± 0.079	0.007 ± 0.072	0.0235 ± 0.1	-0.0115 ± 0.056	-0.0125 ± 0.018
CASM3C:IL-6	-0.0035 ± 0.012	-0.0055 ± 0.0021	0.018 ± 0.0099	-0.0295 ± 0.012	-0.0175 ± 0.021	0.0115 ± 0.044	-0.0205 ± 0.056	-0.025 ± 0.0071	-0.0045 ± 0.035	-0.001 ± 0.038	0 ± 0.044	0.0245 ± 0.0078	-0.0065 ± 0.047	-0.014 ± 0.027	0.0285 ± 0.00071	-0.017 ± 0.011	-0.009 ± 0.0014	0.0215 ± 0.056	0.0015 ± 0.018	-0.004 ± 0.0099
BE3C:Keratin 8/18	-0.007 ± 0.037	-0.0105 ± 0.0078	0.005 ± 0.024	-0.005 ± 0.017	0.003 ± 0.0071	-0.0195 ± 0.016	-0.0185 ± 0.0064	-0.016 ± 0.028	0.017 ± 0.023	-0.0155 ± 0.0092	-0.006 ± 0.017	-0.003 ± 0.024	-0.0105 ± 0.0092	-0.004 ± 0.0014	0.0005 ± 0.022	-0.0105 ± 0.0078	-0.003 ± 0.016	-0.0085 ± 0.013	-0.0095 ± 0.0064	-0.0115 ± 0.00071
